From ChEMBL document CHEMBL1201862, “PubChem BioAssay data set” (2004) come the findings set out here.

As usually defined, the EC50 is the concentration giving half of the maximal effect. In general, IC50 refers to the concentration that gives 50% inhibition. By AC50 is commonly meant the concentration at which the activity in the assay is half-maximal.

The target of one experiment is Beta-galactosidase (Escherichia coli, UniProt Q8VNN2). The experiment in a line: PubChem AID 485352. The format is functional.
Chain of Beta-galactosidase (Q8VNN2 whole entry): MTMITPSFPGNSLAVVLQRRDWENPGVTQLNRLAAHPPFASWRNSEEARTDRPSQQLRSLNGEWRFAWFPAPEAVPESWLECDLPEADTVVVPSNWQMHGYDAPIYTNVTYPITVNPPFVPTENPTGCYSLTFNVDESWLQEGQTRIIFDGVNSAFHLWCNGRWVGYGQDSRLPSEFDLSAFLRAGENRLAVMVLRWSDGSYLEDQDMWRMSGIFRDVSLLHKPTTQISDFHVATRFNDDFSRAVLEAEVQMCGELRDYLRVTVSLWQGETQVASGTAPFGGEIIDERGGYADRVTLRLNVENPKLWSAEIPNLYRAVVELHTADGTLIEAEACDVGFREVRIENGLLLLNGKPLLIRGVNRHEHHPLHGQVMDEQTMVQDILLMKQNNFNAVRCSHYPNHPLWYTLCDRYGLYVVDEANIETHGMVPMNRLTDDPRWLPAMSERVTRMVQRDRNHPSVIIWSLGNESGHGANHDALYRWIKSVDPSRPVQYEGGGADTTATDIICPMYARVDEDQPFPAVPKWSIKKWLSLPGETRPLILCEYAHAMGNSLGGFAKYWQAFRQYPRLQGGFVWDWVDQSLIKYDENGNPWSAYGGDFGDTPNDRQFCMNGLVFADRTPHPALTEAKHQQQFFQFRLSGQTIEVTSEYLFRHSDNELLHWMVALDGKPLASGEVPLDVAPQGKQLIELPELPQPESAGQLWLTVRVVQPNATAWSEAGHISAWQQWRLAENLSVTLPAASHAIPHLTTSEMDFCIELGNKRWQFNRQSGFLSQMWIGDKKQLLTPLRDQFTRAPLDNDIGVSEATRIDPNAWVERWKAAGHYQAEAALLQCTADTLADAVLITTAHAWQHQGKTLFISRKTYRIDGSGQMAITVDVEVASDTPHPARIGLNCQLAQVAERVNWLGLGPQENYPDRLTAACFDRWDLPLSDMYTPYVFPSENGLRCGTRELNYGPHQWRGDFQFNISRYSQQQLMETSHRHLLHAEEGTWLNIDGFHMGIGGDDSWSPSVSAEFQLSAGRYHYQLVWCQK
Experiment [1] addresses T1, Type-1 angiotensin II receptor (Homo sapiens, UniProt P30556).
T1 sequence (P30556 whole entry): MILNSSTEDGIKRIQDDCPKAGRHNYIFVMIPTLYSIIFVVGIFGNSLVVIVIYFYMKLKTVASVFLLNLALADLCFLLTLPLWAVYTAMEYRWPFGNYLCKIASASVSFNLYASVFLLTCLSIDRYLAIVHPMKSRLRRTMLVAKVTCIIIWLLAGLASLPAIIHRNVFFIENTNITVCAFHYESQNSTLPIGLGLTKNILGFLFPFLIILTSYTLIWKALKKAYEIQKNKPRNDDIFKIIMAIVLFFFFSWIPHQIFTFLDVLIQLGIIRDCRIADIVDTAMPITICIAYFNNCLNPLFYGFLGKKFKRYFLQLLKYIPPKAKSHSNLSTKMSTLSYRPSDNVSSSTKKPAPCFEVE
The experiment in a line: antagonism of angiotensin II type 1 receptor – cell-based, uHTS hits, selectivity assay for APJ receptor antagonist project, dose response (AID 463214).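 Further: antagonist potency against angiotensin II stimulated AT1 response.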 It is filed as functional.

A further experiment addresses Cytochrome P450 3A4 (Homo sapiens, UniProt P08684). The conditions noted are these: Potency.
The target in experiment [2] is Voltage-gated inwardly rectifying potassium channel KCNH2 (Homo sapiens, UniProt Q12809). The note with it: Potency.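 Further: confirmatory quantitative high-throughput screen measuring inhibition of hERG channel activity.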
Chain of Voltage-gated inwardly rectifying potassium channel KCNH2 (Q12809 whole entry): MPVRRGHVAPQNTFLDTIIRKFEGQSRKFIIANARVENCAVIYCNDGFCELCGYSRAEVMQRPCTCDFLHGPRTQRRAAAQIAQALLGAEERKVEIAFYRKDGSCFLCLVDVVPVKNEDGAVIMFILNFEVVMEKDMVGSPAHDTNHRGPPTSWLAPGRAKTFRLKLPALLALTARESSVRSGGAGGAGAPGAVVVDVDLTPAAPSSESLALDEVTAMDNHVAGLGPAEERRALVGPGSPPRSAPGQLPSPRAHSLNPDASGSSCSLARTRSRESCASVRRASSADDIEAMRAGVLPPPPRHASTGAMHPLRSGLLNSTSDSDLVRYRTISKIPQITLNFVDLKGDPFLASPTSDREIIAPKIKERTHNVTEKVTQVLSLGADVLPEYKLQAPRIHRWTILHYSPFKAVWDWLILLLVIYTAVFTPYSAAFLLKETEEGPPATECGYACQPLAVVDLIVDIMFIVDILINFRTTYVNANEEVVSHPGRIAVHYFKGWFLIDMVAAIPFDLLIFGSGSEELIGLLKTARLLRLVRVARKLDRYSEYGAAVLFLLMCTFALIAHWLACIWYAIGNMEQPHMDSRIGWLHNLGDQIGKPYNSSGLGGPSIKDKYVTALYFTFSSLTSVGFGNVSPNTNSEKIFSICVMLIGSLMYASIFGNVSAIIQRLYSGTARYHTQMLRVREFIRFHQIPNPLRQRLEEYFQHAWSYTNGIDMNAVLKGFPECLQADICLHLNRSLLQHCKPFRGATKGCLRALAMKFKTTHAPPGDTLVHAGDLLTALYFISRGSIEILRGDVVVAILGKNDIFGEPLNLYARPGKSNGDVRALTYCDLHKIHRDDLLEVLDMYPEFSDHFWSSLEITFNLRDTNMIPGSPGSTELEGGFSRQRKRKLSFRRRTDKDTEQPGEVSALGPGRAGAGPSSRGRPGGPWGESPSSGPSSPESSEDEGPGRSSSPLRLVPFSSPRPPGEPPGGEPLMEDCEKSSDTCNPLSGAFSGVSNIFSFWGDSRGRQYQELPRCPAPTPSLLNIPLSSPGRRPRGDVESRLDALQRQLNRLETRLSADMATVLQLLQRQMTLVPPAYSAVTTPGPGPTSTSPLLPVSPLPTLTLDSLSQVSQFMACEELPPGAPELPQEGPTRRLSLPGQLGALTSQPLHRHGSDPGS
The nature of experiment [3]: NIH-3T3 fibroblast cytotoxicity, dose response, cytotoxicity control, cell-based, fluorescence, Alamar Blue, secondary assay (AID 2327).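 Further: NIH-3T3 mouse fibroblasts cultured with fluconazole at 8 µg/mL.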 The format is functional. On the technique in general: Resazurin is reduced to fluorescent resorufin, in cell work by metabolically active cells.
Experiment [4] is described as follows: fluconazole-exposed Candida albicans growth modulators – fluorescence, retest, confirmation (AID 2467). The format is functional, cell-based.
The nature of experiment [5]: Trypanosoma cruzi growth suppression in host cells – NIH3T3 host cells, beta-gal luminescence, confirmation (AID 2044).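 Further: intracellular parasites grown in NIH/3T3 mouse fibroblasts as host cells; luminescent beta-galactosidase reporter signal from transgenic T. cruzi replicating inside host cells; inhibitors lower the luminescence signal.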 The format is functional, cell-based.
In experiment [6] the target is Serine/threonine-protein phosphatase (Candida dubliniensis (strain CD36 / CBS 7987 / NCPF 3949 / NRRLY-17841) (Yeast), UniProt B9W6M3). The experiment in a line: blockers of CaCl2-induced CDRE-lacZ signaling – S. cerevisiae, luminescence, secondary, dose response (AID 2388).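 Further: yeast reporter cells carrying a calcineurin-responsive lacZ construct stimulated with calcium chloride; luminescent beta-galactosidase reporter signal in whole cells rather than isolated phosphatase activity; potency for inhibition where a drop in reporter signal means calcineurin blockade.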 It is filed as functional, cell-based.
Chain of Serine/threonine-protein phosphatase (B9W6M3 whole entry): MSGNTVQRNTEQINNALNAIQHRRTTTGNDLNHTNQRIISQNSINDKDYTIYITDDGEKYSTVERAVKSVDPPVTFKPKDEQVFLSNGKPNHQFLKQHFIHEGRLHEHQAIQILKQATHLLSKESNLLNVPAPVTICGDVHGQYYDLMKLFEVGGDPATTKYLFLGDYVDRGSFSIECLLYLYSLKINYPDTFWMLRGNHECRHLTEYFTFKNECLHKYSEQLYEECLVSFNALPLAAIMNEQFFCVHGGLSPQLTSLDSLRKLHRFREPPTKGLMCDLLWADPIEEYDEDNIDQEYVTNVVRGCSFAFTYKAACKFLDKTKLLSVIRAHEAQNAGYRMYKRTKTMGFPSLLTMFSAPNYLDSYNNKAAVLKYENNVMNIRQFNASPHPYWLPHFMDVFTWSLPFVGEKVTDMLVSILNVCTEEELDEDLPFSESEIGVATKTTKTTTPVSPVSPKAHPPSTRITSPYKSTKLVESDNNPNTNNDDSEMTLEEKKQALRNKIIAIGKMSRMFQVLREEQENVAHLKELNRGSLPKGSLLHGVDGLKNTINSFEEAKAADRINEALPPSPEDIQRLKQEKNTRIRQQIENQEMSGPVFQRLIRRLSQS
Experiment [7] can be described thus: NIH3T3 cell viability loss – ATP luminescence, mouse fibroblasts, counter-screen, dose response (AID 2010).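 Further: cells exposed to compound for about 90 hours before reading.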 The format is functional, cell-based. Background: A counterscreen serves to expose hits that act by an unwanted route or on another target.
A short description of experiment [8]: HEK-293T viability loss after treatment – luminescence, T-cell screen hits, cytotoxicity control for TCR NF-kB inhibitor project, dose response (AID 489026).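 Further: cells exposed to compound about 14 hours before the viability readout.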 The format is functional, cell-based.
Experiment [9] has as its target T2, Microphthalmia-associated transcription factor (Homo sapiens, UniProt O75030).
T2 sequence (O75030 whole entry): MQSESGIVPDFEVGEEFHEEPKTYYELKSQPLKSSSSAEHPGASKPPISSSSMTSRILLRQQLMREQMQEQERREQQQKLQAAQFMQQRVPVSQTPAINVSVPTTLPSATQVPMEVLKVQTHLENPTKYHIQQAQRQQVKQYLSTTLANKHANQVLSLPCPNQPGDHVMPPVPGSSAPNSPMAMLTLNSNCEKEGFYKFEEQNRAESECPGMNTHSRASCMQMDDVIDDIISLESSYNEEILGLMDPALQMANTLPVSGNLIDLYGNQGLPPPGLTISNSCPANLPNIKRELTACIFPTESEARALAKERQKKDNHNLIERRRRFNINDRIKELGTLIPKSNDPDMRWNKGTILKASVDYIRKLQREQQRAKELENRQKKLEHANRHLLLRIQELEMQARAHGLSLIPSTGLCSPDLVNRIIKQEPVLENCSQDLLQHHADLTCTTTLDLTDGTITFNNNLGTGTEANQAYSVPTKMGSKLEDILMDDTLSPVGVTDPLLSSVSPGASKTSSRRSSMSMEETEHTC
The experiment in a line: reducers of TRPM1 reporter luminescence, concentration series – cell-based, SK-MEL-5, cherry-picked, set 3, MITF inhibitor project, dose response (AID 493073).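 Further: SK-MEL-5 melanoma cells with luciferase driven by the MITF target TRPM1 promoter.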 It is filed as functional.

The test system of another experiment is INS1. The experiment in a line: INS-1E survival protection against cytokine death – cell-based, luminescence, retest, dose response (AID 449756).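 Further: cell death triggered by IL-1 beta plus TNF-alpha plus IFN-gamma mixture; protective hits raise ATP signal compared with cytokine alone wells.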 It is filed as functional. The conditions noted are these: Rattus norvegicus.
Experiment [10] has as its target ATP-dependent molecular chaperone HSP82 (Candida albicans (strain WO-1) (Yeast), UniProt C4YTQ8). The experiment in a line: steroid-induced GRE reporter decrease in yeast – S. cerevisiae, luminescence, Hsp90 inhibitor project, dose response (AID 2400).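 Further: beta-galactosidase luminescence from glucocorticoid response element reporter as proxy for Hsp90 function; inhibitor potency where signal loss means Hsp90 inhibition.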 It is filed as functional, cell-based.
The target of experiment [11] is T3, COUP transcription factor 2 (Homo sapiens, UniProt P24468).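 Further: HEK293 cells transiently cotransfected with COUP-TFII expression vector and reporter; luciferase reporter luminescence driven by COUP-TFII from the pX2-168 reporter plasmid.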
T3 sequence (P24468 whole entry): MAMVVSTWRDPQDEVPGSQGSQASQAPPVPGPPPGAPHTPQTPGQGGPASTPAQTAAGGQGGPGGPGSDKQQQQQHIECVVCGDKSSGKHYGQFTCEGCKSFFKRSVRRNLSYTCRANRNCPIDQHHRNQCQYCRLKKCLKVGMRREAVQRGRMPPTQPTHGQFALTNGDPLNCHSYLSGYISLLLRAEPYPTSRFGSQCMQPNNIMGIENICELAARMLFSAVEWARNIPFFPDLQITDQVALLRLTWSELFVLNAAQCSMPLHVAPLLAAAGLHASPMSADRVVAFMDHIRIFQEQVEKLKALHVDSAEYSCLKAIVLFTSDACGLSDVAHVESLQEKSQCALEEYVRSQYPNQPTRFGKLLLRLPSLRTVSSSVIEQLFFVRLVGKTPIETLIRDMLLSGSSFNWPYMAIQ
The experiment in a line: Luminescence-based cell-based high throughput dose response assay to identify inhibitors of COUP-TFII (NR2F2). It is filed as functional.

For experiment [12], the target named is T4, Tyrosine-protein phosphatase non-receptor type 7 (Homo sapiens, UniProt P35236).
T4 sequence (P35236 whole entry): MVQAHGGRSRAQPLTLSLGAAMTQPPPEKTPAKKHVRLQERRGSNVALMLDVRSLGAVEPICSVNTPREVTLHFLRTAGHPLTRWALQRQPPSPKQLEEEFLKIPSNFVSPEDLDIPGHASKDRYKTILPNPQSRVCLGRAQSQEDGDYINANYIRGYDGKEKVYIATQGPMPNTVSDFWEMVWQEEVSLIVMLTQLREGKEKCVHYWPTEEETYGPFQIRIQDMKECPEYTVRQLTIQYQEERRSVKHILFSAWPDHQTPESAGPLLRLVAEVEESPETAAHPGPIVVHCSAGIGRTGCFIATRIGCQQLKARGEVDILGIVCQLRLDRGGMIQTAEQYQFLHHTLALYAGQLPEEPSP
It is filed as functional.

The target in experiment [13] is Glyceraldehyde-3-phosphate dehydrogenase (Homo sapiens, UniProt P04406).
Chain of Glyceraldehyde-3-phosphate dehydrogenase (P04406 whole entry): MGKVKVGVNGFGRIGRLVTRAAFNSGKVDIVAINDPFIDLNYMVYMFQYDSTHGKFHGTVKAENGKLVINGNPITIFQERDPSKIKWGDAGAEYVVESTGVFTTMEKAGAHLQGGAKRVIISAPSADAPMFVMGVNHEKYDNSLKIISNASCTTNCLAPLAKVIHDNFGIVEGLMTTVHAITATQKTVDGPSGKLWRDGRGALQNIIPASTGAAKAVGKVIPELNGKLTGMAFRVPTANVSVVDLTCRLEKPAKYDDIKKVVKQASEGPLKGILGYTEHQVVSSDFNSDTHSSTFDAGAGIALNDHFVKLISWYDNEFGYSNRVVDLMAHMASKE
Experiment [14] deals with T5, Dual specificity protein phosphatase 6 (Rattus norvegicus, UniProt Q64346).
T5 sequence (Q64346 whole entry): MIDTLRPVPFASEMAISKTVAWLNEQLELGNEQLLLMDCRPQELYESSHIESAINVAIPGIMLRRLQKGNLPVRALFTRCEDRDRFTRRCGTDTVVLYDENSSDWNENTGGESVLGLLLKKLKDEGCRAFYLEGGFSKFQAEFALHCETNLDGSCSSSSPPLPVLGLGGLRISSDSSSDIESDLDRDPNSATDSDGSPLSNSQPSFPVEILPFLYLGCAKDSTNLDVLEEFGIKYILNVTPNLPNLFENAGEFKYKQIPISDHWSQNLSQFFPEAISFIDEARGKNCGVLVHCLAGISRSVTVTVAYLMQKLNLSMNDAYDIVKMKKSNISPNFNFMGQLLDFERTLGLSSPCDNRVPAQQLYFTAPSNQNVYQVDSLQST

For experiment [15], the target named is T5, Dual specificity protein phosphatase 6. The format is functional.
The next experiment has as its target Cytochrome P450 2C19 (Homo sapiens, UniProt P33261). The experiment in a line: Cytochrome panel assay with activity outcomes. Panel member name: p450-cyp2c19 Compounds with AC50 equal or less than 10 uM are considered active. It is filed as functional. The conditions noted are these: read-out: AC50.
A further experiment has as its target Cytochrome P450 2D6 (Homo sapiens, UniProt P10635).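 Further: CYP2D6 member of a cytochrome P450 panel assay.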

Where “and” joins values, the source holds several entries; their conditions need not be identical. Equal entries are not always repeated. Calls of active or inactive are those of the source.

Chain of Cytochrome P450 3A4 (P08684 whole entry): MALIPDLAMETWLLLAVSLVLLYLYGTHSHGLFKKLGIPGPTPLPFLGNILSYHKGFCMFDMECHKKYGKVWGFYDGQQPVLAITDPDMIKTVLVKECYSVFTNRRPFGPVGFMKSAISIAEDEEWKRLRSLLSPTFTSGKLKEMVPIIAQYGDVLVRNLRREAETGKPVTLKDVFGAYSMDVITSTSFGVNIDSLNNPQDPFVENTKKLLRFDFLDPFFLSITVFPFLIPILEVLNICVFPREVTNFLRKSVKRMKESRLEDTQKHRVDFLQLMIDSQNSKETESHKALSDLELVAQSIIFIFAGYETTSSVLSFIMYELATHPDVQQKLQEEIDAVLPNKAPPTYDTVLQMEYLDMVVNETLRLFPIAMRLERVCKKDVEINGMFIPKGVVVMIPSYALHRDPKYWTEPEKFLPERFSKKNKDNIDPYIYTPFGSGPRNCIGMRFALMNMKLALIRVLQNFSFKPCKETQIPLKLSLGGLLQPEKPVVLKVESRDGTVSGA
Chain of ATP-dependent molecular chaperone HSP82 (C4YTQ8 whole entry): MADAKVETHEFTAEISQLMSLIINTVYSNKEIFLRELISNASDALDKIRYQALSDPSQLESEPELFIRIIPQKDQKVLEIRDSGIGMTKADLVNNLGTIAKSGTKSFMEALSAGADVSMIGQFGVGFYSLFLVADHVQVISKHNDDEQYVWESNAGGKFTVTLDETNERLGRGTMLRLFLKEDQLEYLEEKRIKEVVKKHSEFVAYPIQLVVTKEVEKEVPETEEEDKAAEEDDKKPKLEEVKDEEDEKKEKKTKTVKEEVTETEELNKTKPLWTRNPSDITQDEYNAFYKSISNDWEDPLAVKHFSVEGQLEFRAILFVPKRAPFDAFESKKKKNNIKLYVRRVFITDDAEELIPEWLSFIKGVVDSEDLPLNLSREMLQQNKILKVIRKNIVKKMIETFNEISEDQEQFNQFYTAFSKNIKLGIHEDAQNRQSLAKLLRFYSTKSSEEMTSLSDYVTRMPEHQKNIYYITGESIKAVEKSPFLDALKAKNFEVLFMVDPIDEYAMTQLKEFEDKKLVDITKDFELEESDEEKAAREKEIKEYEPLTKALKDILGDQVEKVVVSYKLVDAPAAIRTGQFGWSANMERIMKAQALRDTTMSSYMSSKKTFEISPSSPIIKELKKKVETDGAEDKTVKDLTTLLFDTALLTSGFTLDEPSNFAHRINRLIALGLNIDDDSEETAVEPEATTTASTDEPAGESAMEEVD
Chain of Cytochrome P450 2C19 (P33261 whole entry): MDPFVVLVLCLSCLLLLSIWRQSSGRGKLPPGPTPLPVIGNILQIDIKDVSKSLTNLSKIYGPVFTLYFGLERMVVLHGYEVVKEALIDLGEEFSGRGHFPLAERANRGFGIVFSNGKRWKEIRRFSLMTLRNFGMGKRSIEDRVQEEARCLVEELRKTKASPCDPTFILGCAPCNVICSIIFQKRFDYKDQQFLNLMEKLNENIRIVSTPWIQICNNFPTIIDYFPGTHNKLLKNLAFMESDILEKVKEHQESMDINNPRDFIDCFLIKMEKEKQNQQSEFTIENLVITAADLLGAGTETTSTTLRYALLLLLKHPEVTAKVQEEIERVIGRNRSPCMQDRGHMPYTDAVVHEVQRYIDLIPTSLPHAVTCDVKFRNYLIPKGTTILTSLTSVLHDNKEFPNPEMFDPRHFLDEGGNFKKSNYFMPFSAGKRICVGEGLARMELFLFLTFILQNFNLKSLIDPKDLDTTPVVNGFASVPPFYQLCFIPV

Turning to `CCC1CCCCN1CC(=O)c1ccc(OC(F)F)cc1` (stereo not given), the EC50 at Beta-galactosidase was > 40 µM (inactive). In addition, the IC50 in experiment [1] is given as > 40 µM (not active).

Turning to `CCC(=O)/C=C/C1C(C)=CCCC1(C)C` (stereo not given), the AC50 on Cytochrome P450 3A4 is 31.6 µM (inconclusive); in [2], 39.8 µM (inconclusive).

Consider `COc1ccc(-[n+]2cc(-c3ccc(C)cc3)n3c2SCC3)cc1`, for which the EC50 in experiment [3] was > 150 µM (inactive); in experiment [4], 1.17 µM (active); in experiment [5] it was 0.318 µM (active); in experiment [6], > 180 µM (inactive); in experiment [7] it was > 60 µM (not active); in [10] it was > 150 µM (inactive). For the same compound, the IC50 is > 80 µM (inactive) in [8] and 7.65 µM (active) in [11]. Besides, the AC50 in experiment [9] was 2.91 µM (active); in the experiment on INS1, 1.12 µM (active).

For `O=C(Cc1cccs1)Nc1ccon1`, the IC50 in experiment [12] was > 100 µM (not active); in experiment [13], 27.4 µM (active); in [14], > 100 µM (inactive); in experiment [15] it was > 100 µM (inactive).

On to `O=c1oc(Cl)c(Cl)c2ccccc12`, for which the AC50 at Cytochrome P450 2C19 is 25.1 µM (inconclusive); on Cytochrome P450 2D6, 31.6 µM (inconclusive); in experiment [2] it was 2.82 µM (inconclusive).

With `C[C@]12CC[C@H](O)C[C@@H]1CC[C@@H]1[C@@H]2CC[C@]2(C)C(=O)CC[C@@H]12` [EPIANDROSTERONE], the EC50 in [4] is 877 nM (active) and 1.15 µM (active); in experiment [6] it was > 180 µM (inactive); in experiment [10], 24.2 µM (active). The AC50 at Cytochrome P450 3A4 is 20 µM (inconclusive).
